Data from patent publication US20080008774A1, “Use Of Plants, Plant Extracts And Nature-Identical Components From Plants To Affect The Rumen Fermentation And To Improve The Energy And Protein Retention Of Ruminants” (DSM IP ASSETS B.V., priority 2004, published 2008).

Key:
ruminal digesta [1] = test: Methane formation by ruminal digesta (León incubations, GC); type: cell-based, sheep
Description: A representative sample of the gas produced was taken for subsequent analysis. Sampling was conducted using special gas-tight glass syringes fitted with a valve allowing for sample locking and storage. The sample was collected directly from the headspace, after inserting the needle through the septum of the stopper, taking a sample in the syringe and closing the valve. This sample was collected after measuring total gas production, assuming that gas composition was the same in the gas released and in that remaining in the headspace. Methane concentration in the gas produced was determined by gas chromatography. The gas sample (300 to 500 μl) was injected directly from the gas-tight syringe to the corresponding port. The GC parameter settings used for the analysis were: • Instrument: Shimadzu GC-14B provided with a flame ionisation detector (FID) • Column: 2.3 meters length×2.1 mm internal diameter stainless steel column packed with 60/80 mesh Carboxen 1000 stationary phase • Carrier gas: Helium, flow rate (100 kPa), Constant flow mode • Temperatures: • Detector: FID. Temperature 200° C., Synthetic Air flow rate (50 kPa), H2 flow rate (50 kPa) • Injector: Temperature 200° C. • Column-oven: 170° C. […] The standard curve was established by plotting a linear regression of the standard quantities injected of methane versus the area of the peaks to obtain the response factor.

ruminal fermentation [2] = test: León methods for general effects on fermentation (batch cultures); type: cell-based, sheep; details: Leon diet; amount in feed 10 %; 24 h; control = 100
Description: Rumen cannulated sheep fed on a diet consisting of 75% alfalfa hay and 25% barley (free access to vitamin-mineral supplements and water) were used as donors for rumen fluid. Rumen fluid was collected just before the morning meal. The substrate used for the batch cultures consisted of 50% alfalfa hay, 40% grass hay and 10% barley grain, milled in a hammer mill with a 1-mm screen. The amount of substrate used was 500 mg, and inclusion rate of the test plant was 10% (ca. 50 mg). Both were weighed into serum bottles, where 50 ml of buffered rumen fluid (containing 10 ml of filtered rumen fluid and 40 ml of the medium described by Goering & Van Soest, 1970) were dispensed an-aerobically. The bottles were sealed and incubated at 39° C. After 24 h of incubation, the ensuing measurements were recorded: • Total gas production (ml), using a pressure transducer and collecting the gas in a calibrated syringe. • pH in the incubation medium. • Volatile fatty acids concentration in the incubation medium, by GC (VFA was also measured at inoculation time to calculate VFA production after 24 h). • DM incubation residue, by filtering the bottle contents in sintered crucibles and weighing the residue after drying. Thereafter, the neutral detergent fibre (NDF) content of the residue was determined to calculate the amount of un-degraded NDF. From this, DM and NDF disappearance were estimated. Three replicates per plant were incubated, and blanks (no substrate no plant) and controls (500 mg substrate without any plant, and 550 mg substrate without any plant) were used.

ruminal digesta [3] = test: Proteolytic activity of ruminal digesta, Method 1 (14C-casein); type: cell-based, sheep; details: 2.5 mg/ml, 1 h; value in absence of plant material = 100
Description: Method 1. Strained ruminal fluid from the same sheep was used to determine proteolytic activity using the ^14C-casein method of Wallace (1983). Samples were added to a final concentration of 2.5 mg/ml, and an incubation time of 1 h was used.

[4] = test system: lactic acid producing bacteria; test: Acidosis assay (pH and lactic acid, milled wheat grain, 48-h fermentation); type: cell-based, cows; details: 100 mg/g DM in milled wheat grain (β-myrcene 10 mg/g), control = 100
Description: A model was used in which the decrease in incubation medium pH and the concentration of lactic acid produced, relative to the controls over a 48-h fermentation period provided an indication of the ability of the test substrates to offset potential acidotic effects. In this study milled wheat grain [2 mm] was used as the basal substrate and the test materials included at 100 mg g^−1 DM [or 10 mg g^−1 DM β-myrcene]. As before 1.0 g total substrate was added to each flask. To enhance lactic acid production, the buffer solution prepared was diluted by 50 percent. This was to ensure that the buffering capacity of the incubation medium was exceeded and the resulting decrease in pH encouraged growth of Lactobacilli and other lactic acid producing bacteria. Rumen fluid was obtained and prepared as previously described except that the two cows used were offered an early lactation ration with a high level of coarse milled wheat. Fluid pH measurements were made one hour after inoculation [start pH] then after a further 23 and 47 hours, by inserting a pH electrode directly into each flask. Immediately following the last measurement approximately 3.0 ml fluid were taken from each flask, bulked by sample and stored frozen at −20° C. until analyzed enzymatically for L [+] lactic acid. Results are presented as absolute differences relative to the controls. […]

ruminal fermentation [5] = test: Hohenheim methods for general effects on fermentation (RPT, grass silage); type: cell-based, non-lactating Holstein cows; details: Hohenheim diet; amount in feed 10 %; control = 100
ruminal ciliate protozoa = test: Bacteriolytic activity of ruminal ciliate protozoa (breakdown of 14C-leucine-labelled Selenomonas ruminantium in strained ruminal fluid); type: cell-based, sheep
Description: The rate of breakdown of [^14C]leucine-labelled Selenomonas ruminantium was determined by incubating strained ruminal fluid in vitro with labelled S. ruminantium in the presence of 5 mM unlabelled L-leucine as described previously (Wallace & McPherson, 1987). Under these conditions, the great majority of bacterial protein breakdown is caused by the ingestion and digestion of bacteria by ciliate protozoa. The samples were, unless stated otherwise, added at a concentration of 5 mg/ml. The sheep received a mixed grass hay:concentrate diet (Frumholtz et al., 1989).

ruminal fermentation [6] = test: Reading methods for general effects on fermentation (RPT, maize silage); type: cell-based, lactating dairy cows; details: Reading diet; for Cumulative gas, 24 h / Fermentation efficiency: control = 100; for Dry matter digestion: value in absence of plant material = 100
Description: A series of thirteen consecutive fermentations, one per week, was undertaken using the Reading Pressure Technique [RPT], to identify potential effects from including these test materials on the fermentation and degradation characteristics of a basal forage [maize silage]. All materials were examined in triplicate and at two inclusion levels [100 and 400 mg g^−1 DM substrate], with the exception of β-myrcene [10 and 40 mg g^−1 inclusion levels]. The maize silage was pre-dried and milled to pass a 2 mm screen. A total of 1.0 g blended substrate [silage plus substrate] was placed in each fermentation flask. Buffered incubation medium [90 ml] was then added, the flasks sealed and stored overnight at room temperature. Prior to inoculation with prepared rumen fluid, flask contents were raised to 39° C. Rumen fluid was obtained manually [hand-squeezed contents] prior to feeding [07.00 h] from two lactating dairy cows offered a maize/grass silage : concentrate [60:40] ration ad libitum. The fluid was filtered through two layers of muslin and held under CO2 at 39° C. until use. Ten ml prepared fluid was added to each flask and these incubated at 39° C. for the duration of the study. Six negative controls [buffered medium plus rumen fluid only] were included in each run to correct gas values and degradation residues for direct rumen fluid effects. In addition un-supplemented maize silage [1.0 g flask^−1] was included in all runs [six flasks per run]. Results within studies were expressed relative to the positive control values. Headspace gas pressure readings were obtained 2, 4, 6, 8, 10, 12, 14, 16, 18, 21 and 24 hours post-inoculation. Following the last measurement approximately 3.0 ml fermentation medium was sampled from each flask and bulked by test material/inclusion level and stored frozen [−20° C.] until later analysis for VFA composition using a Varian 3600 GC. Fermentation residues were recovered by filtering flask contents through 60 ml Gooch crucibles [porosity 1, 100 to 160 μm] under light vacuum. The residues were then dried [100° C. for 24 hours], weighed, ashed [500° C. overnight] and reweighed. The quantity of dry matter [DM] and organic matter [OM] determined were used to assess iDMD and iOMD [in vitro DM and OM degradation, respectively]. The extent [ml gas g^−1 OM incubated] and rate of fermentation gas release [ml h^−1] were generated using a previously derived quadratic function to convert pressure to volume. Feed fermentation efficiency [FE] was estimated as iDMD [g kg^−1]/cumulative gas [ml] release at 24 h post-inoculation. Statistical differences between treatment means and the positive control [maize silage alone] were assessed using Students T-test and significance declared at […].

[7] = amount in feed 10 % (β-myrcene 10 mg/g)
[8] = amount in feed 40 % (β-myrcene 40 mg/g)

C=CC(=C)CCC=C(C)C [Sample 13, β-Myrcene]
methane production / methanogenic activity (in words) (ruminal digesta [1]): decrease | Methane formation, Leon (ruminal digesta [1]; 10% of feed, value in absence of plant material = 100): 90 | App. digestibility (ruminal fermentation [2]): 93 | C3/C2 (ruminal fermentation [2]): 105 | Digestibility (ruminal fermentation [2]): 102 | Fermentation efficiency (ruminal fermentation [2]): 109 | Gas production (ruminal fermentation [2]): 97 | Microbial biomass (ruminal fermentation [2]): 115 | TVFA (ruminal fermentation [2]): 96 | Proteolysis, Method 1 (ruminal digesta [3]): 110 | Acidity, 24 h ([4]; 24 h): 105 | Acidity, 48 h ([4]; 48 h): 115 | C3/C2 (ruminal fermentation [5]): 104 | Digestibility (ruminal fermentation [5]): 100 | Fermentation efficiency (ruminal fermentation [5]): 99 | Gas production (ruminal fermentation [5]): 101 | SCFA (ruminal fermentation [5]): 103 | bacteriolytic activity of ciliate protozoa / protozoal activity (in words) (ruminal ciliate protozoa): moderate inhibiting effect | Protozoal activity (ruminal ciliate protozoa; 5 mg/ml, value in absence of plant material = 100): 68 | Cumulative gas, 24 h (ruminal fermentation [6]; [7]): 100 | Fermentation efficiency (ruminal fermentation [6]; [7]): 103 | Dry matter digestion (ruminal fermentation [6]; [7]): 103 | Cumulative gas, 24 h (ruminal fermentation [6]; [8]): 82 | Fermentation efficiency (ruminal fermentation [6]; [8]): 109 | Dry matter digestion (ruminal fermentation [6]; [8]): 89
